SMILES strings stand for the structures.

For this experiment, the target named is T1, Rabbit muscle glycogen phosphorylase a (Oryctolagus cuniculus, UniProt P00489).
T1 construct: purchased Sigma P1261
T1 sequence (P00489 2-843 limits assumed): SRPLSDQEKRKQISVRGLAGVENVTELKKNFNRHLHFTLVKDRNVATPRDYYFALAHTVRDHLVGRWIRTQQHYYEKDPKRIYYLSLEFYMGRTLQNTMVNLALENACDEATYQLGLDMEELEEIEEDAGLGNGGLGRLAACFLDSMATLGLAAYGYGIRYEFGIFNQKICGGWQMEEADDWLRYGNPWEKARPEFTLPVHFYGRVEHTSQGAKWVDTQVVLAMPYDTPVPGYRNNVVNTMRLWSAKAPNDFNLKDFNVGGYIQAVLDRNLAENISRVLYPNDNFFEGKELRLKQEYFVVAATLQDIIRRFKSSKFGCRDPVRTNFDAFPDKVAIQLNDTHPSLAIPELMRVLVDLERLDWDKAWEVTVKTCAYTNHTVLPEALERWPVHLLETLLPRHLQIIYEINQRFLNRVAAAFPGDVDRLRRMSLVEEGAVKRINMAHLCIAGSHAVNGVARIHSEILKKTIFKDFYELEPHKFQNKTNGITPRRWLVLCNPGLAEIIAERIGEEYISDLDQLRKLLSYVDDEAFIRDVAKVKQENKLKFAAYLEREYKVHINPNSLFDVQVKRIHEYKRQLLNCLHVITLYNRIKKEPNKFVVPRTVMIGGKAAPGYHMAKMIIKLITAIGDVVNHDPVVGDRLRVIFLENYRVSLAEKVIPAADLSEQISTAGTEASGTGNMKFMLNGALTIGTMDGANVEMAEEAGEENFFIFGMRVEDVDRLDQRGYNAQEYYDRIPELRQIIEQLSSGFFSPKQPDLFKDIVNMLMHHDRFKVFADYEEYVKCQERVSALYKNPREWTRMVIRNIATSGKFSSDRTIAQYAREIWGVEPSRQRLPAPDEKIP
Kind of experiment: Glycogen phosphorylase assay in vitro (reverse direction, malachite green phosphate detection). The following applies: 50 mM Hepes pH 7.2, 7.5 mM glucose, 0.5 mM glucose-1-phosphate, 1 mg/mL glycogen, 30° C. for 30 min. Type of experiment: biochemical. An excerpt: α-D-Glucose-1-phosphate (disodium salt), Glycogen, D-Glucose, Malachite Green Hydrochloride, Ammonium Molybdate tetrahydrate, BSA, HEPES and rabbit muscle phosphorylase α (P1261) were purchased from Sigma. All other reagents were analytical grade.
Glycogen Phosphorylase Assay In Vitro:
An assay for glycogen phosphorylase activity in the reverse direction was developed based on the method described by Engers et al., Can. J. Biochem., 1970, 48, 746-754]. Rabbit muscle glycogen phosphorylase a (Sigma) was reconstituted at a stock concentration of 100 μg/mL in 25 mM Tris/HCl. […] in a 96-well plate in a final volume of 100 μL containing 50 mM Hepes pH 7.2, 7.5 mM glucose, 0.5 mM glucose-1-phosphate and 1 mg/mL glycogen. After incubation at 30° C. for 30 min, the inorganic phosphate released from glucose-1-phosphate was measured by the addition of 150 μL of malachite green/molybdate solution prepared as follows: 5 mL of 4.2% ammonium molybdate in 4N HCl, 15 mL of 0.045% malachite green, 50 μL of Tween 20. Following a 30 min incubation at rt, the absorbance was measured at 620 nm. For IC50 determination, 10 μL of a serial dilution of compound (100 μM to 0.004 μM) in DMSO was added to each reaction in duplicate with the equivalent concentration of DMSO added to the control uninhibited reaction. Dose response curves were then obtained by plotting % inhibition versus log10 compound concentration. IC50 is defined as the concentration of compound achieving 50% inhibition under the assay conditions described.
Turning to `O=C(NCCNc1ccccc1)c1cc2ccncc2[nH]1` [Example 21, 1H-Pyrrolo[2,3-c]pyridine-2-carboxylic acid (2-phenylaminoethyl)amide], the IC50 was ≥ 100 µM.
As to `COc1ccc2[nH]c(C(=O)N[C@@H](Cc3ccccc3)C(=O)N(C)C)cc2n1` [Example 23, 5-Methoxy-1H-pyrrolo[3,2-b]pyridine-2-carboxylic acid (1-dimethylcarbamoyl-2-(S)-phenylethyl)amide], the IC50 was ≥ 100 µM.
In the case of `CN(C)C(=O)[C@H](Cc1ccccc1)NC(=O)c1cc2ncccc2[nH]1` [Example 24, 1H-Pyrrolo[3,2-b]pyridine-2-carboxylic acid (1-dimethylcarbamoyl-2-(S)-phenylethyl)amide], the IC50 is ≥ 100 µM.
For the compound `O=C(NCCOc1ccccc1)c1cc2ncccc2[nH]1` [Example 25, 1H-Pyrrolo[3,2-b]pyridine-2-carboxylic acid (2-phenoxyethyl)amide], the IC50 was ≥ 100 µM.
With `O=C(NCCNc1ccccc1)c1cc2ncccc2[nH]1` [Example 26, 1H-Pyrrolo[3,2-b]pyridine-2-carboxylic acid (2-phenylaminoethyl)amide], the IC50 was ≥ 100 µM.
To `O=C(NCCN1CCN(Cc2ccccc2)CC1)c1cc2cc(Cl)ncc2[nH]1` [Example 28, 5-Chloro-1H-pyrrolo[2,3-c]pyridine-2-carboxylic acid [2-(4-benzylpiperazin-1-yl)ethyl]amide] belongs ≥ 100 µM; to `O=C(NCCNCc1ccccc1)c1cc2cc(Cl)ncc2[nH]1` [Example 29, 5-Chloro-1H-pyrrolo[2,3-c]pyridine-2-carboxylic acid (2-benzylaminoethyl)amide], ≥ 100 µM.
